Measured values as given in publication PMC7551609 (Viruses, 2020).

Legend:
ZIKV Paraiba/2015 [1] = test: Viral inhibition assay, co-treatment, Vero cells; assay type: cell-based, Zika virus; settings: for Co-treatment MIC (maximum effective concentration): Vero cells, ZIKV Paraiba/2015, co-treatment
Caspase 3 and 7 = test: Apoptosis assay (Caspase Glo 3/7) in ZIKV-infected Vero cells; settings: 0, 0.1, 1, 10 EC50; 24, 48, 72 h post-treatment
ZIKV Paraiba/2015 [2] = test: Viral inhibition assay, post-treatment, human A549 cells; assay type: cell-based, Zika virus; settings: for inhibitor category based on SI-MTT and SI-XTT: Paraiba/2015, A549 cells; for MIC / EC50: Zika virus; for MIC: in Homo sapiens, read-out: A549 cells MIC (maximum effective concentration); for EC50: ZIKV Paraiba/2015, A549 cells, post-treatment, 36 h
ZIKV Paraiba/2015 [3] = test: Viral inhibition assay, pre-treatment (prophylactic), Vero cells; assay type: cell-based, Zika virus; settings: for MIC / EC50: Zika virus; for MIC: read-out: Pre-treatment MIC (maximum effective concentration); for EC50: ZIKV Paraiba/2015, Vero cells, pre-treatment 12 h before infection
ZIKV Paraiba/2015 [4] = test: Viral inhibition assay, post-infection treatment, Vero cells; assay type: cell-based, Zika virus; settings: for EC50: 36 h, ZIKV Paraiba/2015, Vero cells, post-infection treatment; for MIC: read-out: Post-treatment MIC (maximum effective concentration); for inhibitor category based on SI-MTT and SI-XTT: post-treatment, Paraiba/2015, Vero
ZIKV Paraiba/2015 [5] = test: Growth kinetics inhibition assay (infectious viral progeny), Vero cells; assay type: cell-based, Zika virus
ZIKV PRVABC59 strain = test: Viral inhibition assay, post-treatment, new World strain, Vero cells; assay type: cell-based, Zika virus; settings: for EC50 / MIC: Zika virus; for EC50: new World ZIKV PRVABC59, Vero cells, post-treatment, 48 h; for MIC: new World ZIKV PRVABC59, read-out: PRVABC59 MIC (maximum effective concentration)
ZIKV MR-766 strain = test: Viral inhibition assay, post-treatment, old World strain, Vero cells; assay type: cell-based, Zika virus; settings: for inhibitor category based on SI-MTT and SI-XTT: ZIKV MR-766, Vero; for EC50 / MIC: Zika virus; for EC50: old World ZIKV MR-766, Vero cells, post-treatment; for MIC: old World ZIKV MR-766 strain, read-out: MR766 MIC (maximum effective concentration)
[6] = XTT cell proliferation assay in Vero cells; assay type: cell-based, African green monkey; settings: African green monkey, confluent monolayers; non-infected Vero cells, 36 h post-treatment
[7] = XTT cell proliferation in A549 cells; assay type: cell-based, human; settings: human, highest concentration used 50.00 µM, sentence also cites [17]
[8] = MTT cell viability in A549 cells; assay type: cell-based, human; settings: human, highest concentration used 50.00 µM, sentence also cites [17]
[9] = MTT cell viability assay in Vero cells; assay type: cell-based, African green monkey; settings: African green monkey, confluent monolayers; non-infected Vero cells, 36 h post-treatment
ZIKV MR-766 = settings: ZIKV MR-766, Vero cells; cited from earlier work
ZIKV PRVABC59 = settings: ZIKV PRVABC59, Vero cells; cited from earlier work
ZIKV KX197192.1 strain = tested on: ZIKV KX197192.1 strain; set-up: method as in ref 32, 34 = [32]; settings: Huh7 cells; cited from earlier work
ZIKV DAKAR B11514 = tested on: ZIKV DAKAR B11514; set-up: method as in ref 32, 34 = [32]; settings: ZIKV DAKAR B11514, Vero cells; cited from earlier work
[10] = co-treatment, Paraiba/2015, Vero
[11] = pre-treatment, Paraiba/2015, Vero

Row | Structure (SMILES) | Co-treatment MIC (maximum effective concentration) (ZIKV Paraiba/2015 [1]) [µM] | inhibitor category based on SI-MTT and SI-XTT (ZIKV Paraiba/2015 [1]; [10]) | inhibitor category based on SI-MTT and SI-XTT (ZIKV Paraiba/2015 [2]) | MIC (ZIKV Paraiba/2015 [2]) [µM] | EC50 (ZIKV Paraiba/2015 [2]) [µM] | MIC (ZIKV Paraiba/2015 [3]) [µM] | EC50 (ZIKV Paraiba/2015 [3]) [µM] | inhibitor category based on SI-XTT (ZIKV Paraiba/2015 [3]; [11]) | EC50 (ZIKV Paraiba/2015 [4]; Zika virus, Vero) [µM] | MIC (ZIKV Paraiba/2015 [4]; Zika virus) [µM] | inhibitor category based on SI-MTT and SI-XTT (ZIKV Paraiba/2015 [4]) | EC50 (ZIKV PRVABC59 strain) [µM] | MIC (ZIKV PRVABC59 strain) [µM] | inhibitor category based on SI-MTT and SI-XTT (ZIKV MR-766 strain) | EC50 (ZIKV MR-766 strain) [µM] | MIC (ZIKV MR-766 strain) [µM] | CC50 at 36 h [6] [µM] | CC50 [7] [µM] | CC50 [8] [µM] | CC50 at 36 h [9] [µM] | further results
1 | O=C(O)C1=CC(=C(c2ccc(O)c(C(=O)O)c2)c2ccc(O)c(C(=O)O)c2)C=CC1=O [ATA, Aurintricarboxylic acid] | < 33.30 | potent | weak | < 100 | 6.67 | > 100 | 9.86 | moderate | 21 | > 100 | moderate to weak | 4.74 | < 33.3 | weak | 8.08 | < 33.3 | > 1350 | > 50 | > 50 | > 1350 | caspase 3/7 activation in ZIKV-infected cells (Caspase 3 and 7): dose-dependent effect; inhibitor category based on SI-MTT (ZIKV Paraiba/2015 [3]; [11]): potent; effect on production of infectious viral progeny (viral titers) (ZIKV Paraiba/2015 [5]; 10 EC50): complete inhibition; inhibitor category based on SI-MTT (ZIKV PRVABC59 strain; ZIKV PRVABC59, Vero): moderate; inhibitor category based on SI-XTT (ZIKV PRVABC59 strain; ZIKV PRVABC59, Vero): weak
2 | O=c1cnn([C@@H]2O[C@H](CO)[C@@H](O)[C@H]2O)c(=O)[nH]1 [Azauridine, 6-azauridine] | < 100.00 | weak | moderate | < 1.23 | 0.44 | > 100 | 64.5 | weakest | 3.72 | > 100 | moderate to weak | 1.46 | < 11.1 | moderate | 0.76 | < 3.7 | > 1350 | > 50 | > 50 | 156 | inhibitor category based on SI-MTT (ZIKV Paraiba/2015 [1]; [10]): weak; EC50 (ZIKV MR-766): 0.98 µM; inhibitor category based on SI-MTT and SI-XTT (ZIKV Paraiba/2015 [3]; [11]): weak; EC50 (ZIKV PRVABC59): 0.61 µM; EC50 (ZIKV Paraiba/2015 [4]): 4.29 µM; EC50 (ZIKV KX197192.1 strain): 2.3 µM; effect on production of infectious viral progeny (viral titers) (ZIKV Paraiba/2015 [5]; 0.1, 1, 10 EC50, all time points (24, 48, 72 h post-treatment), MOI 0.1): dose-dependent inhibitory effect; inhibitor category based on SI-MTT and SI-XTT (ZIKV PRVABC59 strain; ZIKV PRVABC59, Vero): moderate; EC50 (ZIKV DAKAR B11514): 1.5 µM
